Experimental data from ChEMBL document CHEMBL6121040, “Synthesis and biological assessment of BUB1B inhibitors for the treatment of clear cell renal cell carcinoma” (Eur J Med Chem, 2025).

Experiments:
[1] = test system: CAKI-1; experiment: Cytotoxicity against human CAKI-1 cells assessed as cell viability at 10 uM incubated for 1 day by MTT assay relative to control; assay type: functional; conditions: CAKI-1, 24 h, read-out: Activity
[2] = test system: CAKI-1; experiment: Cytotoxicity against human CAKI-1 cells assessed as reduction in cell viability incubated for 1 day by MTT assay; assay type: functional, cell-based; conditions: CAKI-1, 24 h

Compound | viability at 10 µM [1] [%] | IC50 [2] [µM]
Cc1cnc(Nc2ccc(OCCCN3CCOCC3)cc2)nc1Nc1cccc(S(=O)(=O)NC(C)(C)C)c1 | 41.9 | 
COc1cccc(Nc2ncc(C)c(Nc3cccc(S(=O)(=O)NC(C)(C)C)c3)n2)c1OC | 78 | 
Cc1ccc(Nc2ncc(C)c(Nc3cccc(S(=O)(=O)NC(C)(C)C)c3)n2)cc1S(N)(=O)=O | 43.2 | 
Cc1ccc(Nc2ncc(C)c(Nc3cccc(S(=O)(=O)NC(C)(C)C)c3)n2)cc1Nc1nc(-c2cccnc2)cs1 | 43.5 | 
Cc1cnc(Nc2cccc(S(=O)(=O)N3CCOCC3)c2)nc1Nc1cccc(S(=O)(=O)NC(C)(C)C)c1 | 60.6 | 
COc1ncnc(NS(=O)(=O)c2ccc(Nc3ncc(C)c(Nc4cccc(S(=O)(=O)NC(C)(C)C)c4)n3)cc2)c1OC | 104 | 
Cc1cnc(Nc2ccc(N3CCN(C(=O)Nc4ccccc4C(F)(F)F)CC3)cc2)nc1Nc1cccc(S(=O)(=O)NC(C)(C)C)c1 | 39.7 | 
COc1cc(Nc2ncc(C)c(Nc3cccc(S(=O)(=O)NC(C)(C)C)c3)n2)cc(OC)c1 | 46.5 | 2.79
Cc1cnc(Nc2ccc(N3CCN(S(=O)(=O)c4ccccc4)CC3)cc2)nc1Nc1cccc(S(=O)(=O)NC(C)(C)C)c1 | 83.8 | 
Cc1cnc(Nc2ccc(N3CCN(C(=O)Nc4ccccc4F)CC3)cc2)nc1Nc1cccc(S(=O)(=O)NC(C)(C)C)c1 | 46.7 | 
Cc1cc(NS(=O)(=O)c2ccc(Nc3ncc(C)c(Nc4cccc(S(=O)(=O)NC(C)(C)C)c4)n3)cc2)no1 | 95.5 | 
Cc1cnc(Nc2ccc(N3CCN(C)CC3)cc2)nc1Nc1cccc(S(=O)(=O)NC(C)(C)C)c1C | 52.1 | 
Cc1ccccc1NC(=O)N1CCN(c2ccc(Nc3ncc(C)c(Nc4cccc(S(=O)(=O)NC(C)(C)C)c4)n3)cc2)CC1 | 45 | 
CNC(=O)N1CCN(c2ccc(Nc3ncc(C)c(Nc4cccc(S(=O)(=O)NC(C)(C)C)c4)n3)cc2)CC1 | 40.6 | 
Cc1cnc(Nc2ccc(Oc3ccc(Cl)cc3)nc2)nc1Nc1cccc(S(=O)(=O)NC(C)(C)C)c1 | 87.7 | 
Cc1cnc(Nc2ccc(N3CCN(C(=O)N4CCCC4)CC3)cc2)nc1Nc1cccc(S(=O)(=O)NC(C)(C)C)c1 | 43.1 | 
COc1ccc(S(=O)(=O)N2CCN(c3ccc(Nc4ncc(C)c(Nc5cccc(S(=O)(=O)NC(C)(C)C)c5)n4)cc3)CC2)cc1OC | 73.8 | 
Cc1cnc(Nc2ccc(N3CCN(C(=O)N(C)c4ccccc4)CC3)cc2)nc1Nc1cccc(S(=O)(=O)NC(C)(C)C)c1 | 44.5 | 
Cc1ccc(Nc2nc(Nc3ccc(N4CCN(C)CC4)cc3)ncc2C)cc1S(N)(=O)=O | 34.7 | 
COc1ccc(Nc2ncc(C)c(Nc3cccc(S(=O)(=O)NC(C)(C)C)c3)n2)cc1OC | 36.6 | 
